Read-outs that look alike come from different tables or passages of the source. Blank lines part the entries; values can stand above or below the compound they belong to. Where a SMILES comes first, the peptide text is derived from it. Where no end group is shown, it is not given here. The star is where a group is joined. Cbz = O=C(OCc1ccccc1)*
Assays:
[1] = test system: B16-F10 cells; assay: B16-F10 tumour growth and metastasis in TRB3 knockdown KK-Ay mice given 3-MA or MG132; format: in vivo; conditions: KK-Ay/TRB3-KD mice, B16-F10 s.c. or i.v.; 3-MA 30 mg kg^−1 per day or MG132 2.5 mg kg^−1 twice a week i.p.; n=6 per group; Supplementary Fig. 4g,h
Description: Seven-week-old KK-Ay mice were i.p. injected with TRB3-shRNA lentiviral particles (2 × 10^5 plaque-forming unit) to generate KK-Ay/TRB3-KD mice; over 75% depletion of TRB3 in target tissues (lungs and liver) was considered as effectively knocking down. 3-MA (30 mg kg^−1 per day) or MG132 (2.5 mg kg^−1 twice a week) was i.p. injected to the KK-Ay/TRB3-KD mice, from day 9 after tumour inoculation to the time of being killed. The evaluation of tumour growth and metastasis was described in the section of ‘Mouse Models for Tumour Growth and Metastasis'.
control-shRNA. Data are the summarized fold changes of proteins (control-
shRNA/TRB3-shRNA1) (upper) and representative spots showing
differentially expressed EGFR (framed) (lower). Data are representative of 2
independent assays. (e) The xenograft tumours express higher pro-
metastasis and pro-EMT factors in KK-Ay mice than that in C57 BL/6 mice.
Data are representative immunoblots of 4 independent assays. (f) The liver
and lung tissues express higher pro-metastasis and pro-EMT factors in
DMBA-treated KK-Ay mice than that in DMBA-treated C57 BL/6. Data are
representative immunoblots of 4 independent assays. (g,h) Suppressing
autophagy or UPS reverses the antitumour effect of TRB3 knockdown. TRB3
knockdown KK-Ay mice were s.c. injected with B16-F10 cells ([…]) or i.v. […]
Statistical significance was determined by Student’s t-test; *P<0.05, **P<0.01,

[2] = test system: TRB3-silenced HepG2 cells; assay: Protein turnover assay in TRB3-silenced HepG2 cells with degradation inhibitors; format: cell-based, human; conditions: inhibitor 12 h, immunoblot, Fig. 3f
Description: Figure 3 Enhanced TRB3 compromises selective autophagy and clearance of UPS. (a) BEAS-2B cells were infected with TRB3-Myc-adenovirus expressing Myc-Tagged TRB3 with an independently expressing GFP. GFP-adenovirus was used as control. Indicated molecules were detected by immunoblotting. Data are representatives of four independent assays. (b) TRB3-silenced cells were treated with IGF-1 (100 nM) for 12 h and indicated proteins were detected by immunoblotting. Data are representatives of four independent assays. (c) Control or TRB3-silenced HepG2 cells were infected with adenovirus with mRFP-GFP-LC3-PE. After 24 h, the cells were treated with IGF-1 (100 nM) for 12 h and the flux rate of autophagy was detected with Live Cell Imaging Microscopy. Data are schematic drawing of the autophagy process (upper) and microscopy images showing red-coloured autophagolysosomes or red/green double-coloured autophagosomes (lower). Scale bar, 10 μm. See also Supplementary Movies 1–6. (d) Silencing TRB3 increased the number of autophagosomes (Avi) and autolysosomes (Avd) in HepG2 cells treated with or without IGF-1 (100 nM). Data are representative images of TEMs of three independent assays. Single arrows denote Avi; double arrows indicate Avd. Scale bar, 500 nm. The ratio of autophagic vacuole area to the cytoplasmic area was determined by morphometric analysis. Data are means±s.e.m. (e) TRB3-silenced cells were treated with IGF-1 (100 nM) for 12 h. Expression of indicated proteins was detected by immunoblotting. Data are representatives of four independent assays. (f) TRB3-silenced HepG2 cells were treated with bafilomycin (left) or MG132 (right) for 12 h. Indicated proteins were detected by immunoblotting. […] The cells were treated with or without IGF-1 for 12 h and the expression of Ub^G76V-GFP was immunoblotted with anti-GFP antibody (Ab; left) or detected with flow cytometry (right). […] The proliferative and invasive capacities of cells were evaluated with Edu (h) and transwell assays (i). Statistical significance was determined with one-way analysis of variance (ANOVA); *P<0.05; **P<0.01; ***P<0.001. […]

[3] = target: T1, TRB3 (Homo sapiens, UniProt Q96RU7); assay: Surface plasmon resonance binding of peptides to immobilized TRB3
T1 sequence (Q96RU7 1-358): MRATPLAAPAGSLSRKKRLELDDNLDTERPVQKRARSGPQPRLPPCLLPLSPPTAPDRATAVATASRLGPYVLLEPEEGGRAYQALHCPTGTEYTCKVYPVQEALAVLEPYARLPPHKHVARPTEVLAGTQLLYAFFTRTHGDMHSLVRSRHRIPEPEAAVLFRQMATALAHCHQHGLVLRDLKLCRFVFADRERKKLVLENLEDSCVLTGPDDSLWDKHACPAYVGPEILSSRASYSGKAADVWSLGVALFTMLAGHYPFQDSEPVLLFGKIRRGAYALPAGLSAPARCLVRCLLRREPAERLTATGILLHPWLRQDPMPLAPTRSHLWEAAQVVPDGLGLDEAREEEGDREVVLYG
Description: Binding kinetics between TRB3 and control, P2, P4, P6, P7, P8, P9, P11, A1, A2 or A3 were measured by a surface plasmon resonance assay using BIAcore T200 instrument (GE Healthcare, Pittsburgh, USA)[53]. The dissociation constant (KD) was calculated according to the BIA-evaluation software.

[4] = test system: p62; assay: Cycloheximide chase of p62 degradation in HepG2 cells; format: cell-based, human; conditions: CHX 10 μg ml^−1 after insulin/IGF-1 stimulation, 8.5 h without stimulation, three independent assays, Fig. 4b
Description: Figure 4 TRB3 mediates insulin/IGF-induced p62 accumulation. (a) HepG2 cells were treated with indicated stimulators for 12 h. The mRNAs were determined with RT–PCR using specific primer sets. Data are means±s.e.m of three independent assays. (b) HepG2 cells were incubated with cycloheximide (CHX) (10 μg ml^−1) for indicated time points after insulin/IGF-1 stimulation. Indicated proteins were detected with immunoblotting. Data are means±s.e.m of three independent assays. (c) Control or TRB3-silenced cells were incubated with CHX (10 μg ml^−1) for indicated time points after IGF-1 stimulation. Cell lysates were isolated for immunoblotting. Data are means±s.e.m of three independent assays. (d) HepG2 cells expressing p62- or control-siRNA were co-transfected with Ub^G76V-GFP. The cells were treated with IGF-1 for 12 h. The cell lysates were isolated for immunoblotting. Data are representative of immunoblots of three independent assays. (e) Cells expressing control-shRNA or TRB3-shRNAs were transfected with Ub^G76V-GFP plasmid plus or minus with p62-DDK-expressing plasmid. The lysates were isolated for immunoblotting. […] After 24 h, the cells were treated with IGF-1 for 12 h, and the flux rate of autophagy was detected with Live Cell Imaging Microscopy. […] Indicated proteins were evaluated with immunoblotting. […] Statistical significance was determined with Student's t-test; *P<0.05. […]

[5] = SPR, BIAcore T200, peptide passed over TRB3 immobilized on CM5 sensor chip, alanine scan of A2, Fig. 6f, read-out: KD

Compound: Cn1cnc(N)c2ncnc1-2 [3-MA]
effect on antitumour actions of TRB3 deficiency [1]: overturn the antitumour actions of TRB3 deficiency

Compound: CC(C)C[C@@H](C=O)NC(=O)[C@H](CC(C)C)NC(=O)[C@H](CC(C)C)NC(=O)OCc1ccccc1 [MG132] (Cbz-Leu-Leu-Leu-aldehyde)
turnover of COX2, Twist and MMP-2 [2]: inhibited
effect on antitumour actions of TRB3 deficiency [1]: overturn the antitumour actions of TRB3 deficiency

Compound: CO/C1=C\C(C)=C\[C@@H](C)[C@@H](O)[C@@H](C)C/C(C)=C/C=C/[C@H](OC)[C@@H]([C@@H](C)[C@@H](O)[C@H](C)[C@@]2(O)C[C@@H](O)[C@H](C)[C@@H](C(C)C)O2)OC1=O [bafilomycin]
turnover of COX2, Twist and MMP-2 [2]: not inhibited
turnover of LC3, EGFR, c-Myc, MMP1 and p62 [2]: inhibited

Compound: AGWLTRLLQTK [M1]
Kd [3]: 1640 nM

Compound: GAWLTRLLQTK [M2]
Kd [3]: 402 nM

Compound: GGALTRLLQTK [M3]
Kd [3]: 3590 nM

Compound: GGWATRLLQTK [M4]
Kd [3]: 4320 nM

Kd [3, 5]: 110 nM
Compound: GGWLARLLQTK [M5]

Kd [3, 5]: 0.142 nM
Compound: GGWLTALLQTK [M6]

Kd [3, 5]: 11800 nM
Compound: GGWLTRALQTK [M7]

Compound: GGWLTRLLATK [M9]
Kd [3]: 35600 nM

Compound: GGWLTRLLQAK [M10]
Kd [3]: 381 nM

Compound: GGWLTRLLQTA [M11]
Kd [3]: 73.1 nM

Compound: IGF-1
half-life of p62 degradation [4]: 24 h

Compound: insulin
half-life of p62 degradation [4]: 24 h
